Literature values in US20230104487A1, “11-(4-CHLOROPHENYL)-4-(2,3-DIHYDRO-1H-INDOLE-1-CARBONYL)-3,11-DIMETHYL-5,10,DIOXATRICYCLO[7.4.0.0,2,6,]TRIDECA-1,3,6,8-TETRAEN-13-ONE AND DERIVATIVES AS DESTABILIZER OF CRY1 FOR THE TREATMENT OF CIRCADIAN RHYTHM ASSOCIATED DISEASES AND DISORDERS” (KOC UNIVERSITESI, priority 2019, published 2023).

Legend:
REV-ERB = conditions: Solt et al., 2012; cited from earlier work
gluconeogenesis = conditions: Hirota et al., 2012; cited from earlier work
CRYs = conditions: Hirota et al., 2012; cited from earlier work

CC(C)(C)OC(=O)CN(Cc1ccc(Cl)cc1)Cc1ccc([N+](=O)[O-])s1 [GSK4112]
effect on REV-ERB's repressor function (REV-ERB): enhance REV-ERB's repressor function toward Bmal1 transcription

CS(=O)(=O)N(Cc1ccco1)CC(O)Cn1c2ccccc2c2ccccc21 (stereo not drawn) [KL001]
effect on gluconeogenesis (gluconeogenesis): suppresses the gluconeogenesis | effect on stability of the CRYs (CRYs): increases stability of the CRYs
